Assay results as given in publication PMC3639963, “A New Class of Small Molecule Inhibitor of BMP Signaling” (PLoS ONE, 2013).

Assays:
[1] = target: T1, SRPK2 (Homo sapiens, UniProt P78362); assay: DSF thermal shift; assay type: binding; settings: 10 µM inhibitor; read-out: Tm shift
T1 construct: purchased Nanosyn (enzymatic panel); SGC in-house recombinant human kinases (DSF panel); Invitrogen (ALK1-6)
How it was run: (§1)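 Protein unfolding is read on a real-time PCR instrument. The assay uses 1–2 µM recombinant human kinase with test compound at 10 µM.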

[2] = target: T2, GUCY2D (Homo sapiens, UniProt Q02846); assay: DSF thermal shift; assay type: binding; settings: 10 µM inhibitor; read-out: Tm shift
T2 construct: purchased Nanosyn (enzymatic panel); SGC in-house recombinant human kinases (DSF panel); Invitrogen (ALK1-6)
How it was run: as §1

[3] = target: T3, ALK6 (Homo sapiens, UniProt O00238); assay: DSF thermal shift; assay type: binding; settings: 10 µM inhibitor; read-out: Tm shift
T3 construct: purchased Nanosyn (enzymatic panel); SGC in-house recombinant human kinases (DSF panel); Invitrogen (ALK1-6)
How it was run: as §1

[4] = target: T4, ERK1 (Homo sapiens, UniProt P27361); assay: DSF thermal shift; assay type: binding; settings: 10 µM inhibitor; read-out: Tm shift
T4 construct: purchased Nanosyn (enzymatic panel); SGC in-house recombinant human kinases (DSF panel); Invitrogen (ALK1-6)
How it was run: as §1

[5] = target: T5, VRK1 (Homo sapiens, UniProt Q99986); assay: DSF thermal shift; assay type: binding; settings: 10 µM inhibitor; read-out: Tm shift
T5 construct: purchased Nanosyn (enzymatic panel); SGC in-house recombinant human kinases (DSF panel); Invitrogen (ALK1-6)
How it was run: as §1

[6] = target: T6, PCTAIRE1 (Homo sapiens, UniProt Q00536); assay: DSF thermal shift; assay type: binding; settings: 10 µM inhibitor; read-out: Tm shift
T6 construct: purchased Nanosyn (enzymatic panel); SGC in-house recombinant human kinases (DSF panel); Invitrogen (ALK1-6)
How it was run: as §1

[7] = target: T7, ALK5 (Homo sapiens, UniProt P36897); assay: DSF thermal shift; assay type: binding; settings: 10 µM inhibitor; read-out: Tm shift
T7 construct: purchased Nanosyn (enzymatic panel); SGC in-house recombinant human kinases (DSF panel); Invitrogen (ALK1-6)
How it was run: as §1

[8] = target: T8, TNIK (Homo sapiens, UniProt Q9UKE5); assay: DSF thermal shift; assay type: binding; settings: 10 µM inhibitor; read-out: Tm shift
T8 construct: purchased Nanosyn (enzymatic panel); SGC in-house recombinant human kinases (DSF panel); Invitrogen (ALK1-6)
How it was run: as §1

[9] = target: T9, DYRK1A (Homo sapiens, UniProt Q13627); assay: DSF thermal shift; assay type: binding; settings: 10 µM inhibitor; read-out: Tm shift
T9 construct: purchased Nanosyn (enzymatic panel); SGC in-house recombinant human kinases (DSF panel); Invitrogen (ALK1-6)
How it was run: as §1

[10] = target: T10, GRK3 (Homo sapiens, UniProt P35626); assay: DSF thermal shift; assay type: binding; settings: 10 µM inhibitor; read-out: Tm shift
T10 construct: purchased Nanosyn (enzymatic panel); SGC in-house recombinant human kinases (DSF panel); Invitrogen (ALK1-6)
How it was run: as §1

[11] = target: T11, CK1γ1 (Homo sapiens, UniProt Q9HCP0); assay: DSF thermal shift; assay type: binding; settings: 10 µM inhibitor; read-out: Tm shift
T11 construct: purchased Nanosyn (enzymatic panel); SGC in-house recombinant human kinases (DSF panel); Invitrogen (ALK1-6)
How it was run: as §1

[12] = target: T12, PRKX (Homo sapiens, UniProt P51817); assay: DSF thermal shift; assay type: binding; settings: 10 µM inhibitor; read-out: Tm shift
T12 construct: purchased Nanosyn (enzymatic panel); SGC in-house recombinant human kinases (DSF panel); Invitrogen (ALK1-6)
T12 sequence (P51817 1-358): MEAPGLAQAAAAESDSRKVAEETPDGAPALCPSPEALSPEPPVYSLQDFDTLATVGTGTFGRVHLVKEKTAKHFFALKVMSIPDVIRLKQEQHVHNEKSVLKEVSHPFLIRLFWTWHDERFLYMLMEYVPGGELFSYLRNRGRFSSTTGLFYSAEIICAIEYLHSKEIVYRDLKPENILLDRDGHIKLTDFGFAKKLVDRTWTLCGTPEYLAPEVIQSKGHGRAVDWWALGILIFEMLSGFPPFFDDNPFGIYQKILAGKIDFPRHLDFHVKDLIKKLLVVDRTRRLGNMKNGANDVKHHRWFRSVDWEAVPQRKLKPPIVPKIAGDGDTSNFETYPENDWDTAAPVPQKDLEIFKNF
How it was run: as §1

[13] = target: T13, GAK (Homo sapiens, UniProt O14976); assay: DSF thermal shift; assay type: binding; settings: 10 µM inhibitor; read-out: Tm shift
T13 construct: purchased Nanosyn (enzymatic panel); SGC in-house recombinant human kinases (DSF panel); Invitrogen (ALK1-6)
How it was run: as §1

[14] = target: T14, CDKL1 (Homo sapiens, UniProt Q00532); assay: DSF thermal shift; assay type: binding; settings: 10 µM inhibitor; read-out: Tm shift
T14 construct: purchased Nanosyn (enzymatic panel); SGC in-house recombinant human kinases (DSF panel); Invitrogen (ALK1-6)
How it was run: as §1

[15] = target: T15, MYLK4 (Homo sapiens, UniProt Q86YV6); assay: DSF thermal shift; assay type: binding; settings: 10 µM inhibitor; read-out: Tm shift
T15 construct: purchased Nanosyn (enzymatic panel); SGC in-house recombinant human kinases (DSF panel); Invitrogen (ALK1-6)
How it was run: as §1

[16] = target: T16, CDK8 (Homo sapiens, UniProt P49336); assay: DSF thermal shift; assay type: binding; settings: 10 µM inhibitor; read-out: Tm shift
T16 construct: purchased Nanosyn (enzymatic panel); SGC in-house recombinant human kinases (DSF panel); Invitrogen (ALK1-6)
How it was run: as §1

[17] = target: T17, p38β (Homo sapiens, UniProt Q15759); assay: DSF thermal shift; assay type: binding; settings: 10 µM inhibitor; read-out: Tm shift
T17 construct: purchased Nanosyn (enzymatic panel); SGC in-house recombinant human kinases (DSF panel); Invitrogen (ALK1-6)
How it was run: as §1

[18] = target: T18, DRAK1 (Homo sapiens, UniProt Q9UEE5); assay: DSF thermal shift; assay type: binding; settings: 10 µM inhibitor; read-out: Tm shift
T18 construct: purchased Nanosyn (enzymatic panel); SGC in-house recombinant human kinases (DSF panel); Invitrogen (ALK1-6)
How it was run: as §1

[19] = target: T19, BRK (Homo sapiens, UniProt Q13882); assay: DSF thermal shift; assay type: binding; settings: 10 µM inhibitor; read-out: Tm shift
T19 construct: purchased Nanosyn (enzymatic panel); SGC in-house recombinant human kinases (DSF panel); Invitrogen (ALK1-6)
How it was run: as §1

[20] = target: T20, BMPRII (Homo sapiens, UniProt Q13873); assay: DSF thermal shift; assay type: binding; settings: 10 µM inhibitor; read-out: Tm shift
T20 construct: purchased Nanosyn (enzymatic panel); SGC in-house recombinant human kinases (DSF panel); Invitrogen (ALK1-6)
How it was run: as §1

[21] = target: T21, CAMK1δ (Homo sapiens, UniProt Q8IU85); assay: DSF thermal shift; assay type: binding; settings: 10 µM inhibitor; read-out: Tm shift
T21 construct: purchased Nanosyn (enzymatic panel); SGC in-house recombinant human kinases (DSF panel); Invitrogen (ALK1-6)
How it was run: as §1

[22] = target: T22, DCAMKL1 (Homo sapiens, UniProt O15075); assay: DSF thermal shift; assay type: binding; settings: 10 µM inhibitor; read-out: Tm shift
T22 construct: purchased Nanosyn (enzymatic panel); SGC in-house recombinant human kinases (DSF panel); Invitrogen (ALK1-6)
How it was run: as §1

[23] = target: T23, CK2α1 (Homo sapiens, UniProt P68400); assay: DSF thermal shift; assay type: binding; settings: 10 µM inhibitor; read-out: Tm shift
T23 construct: purchased Nanosyn (enzymatic panel); SGC in-house recombinant human kinases (DSF panel); Invitrogen (ALK1-6)
How it was run: as §1

[24] = target: T24, STK33 (Homo sapiens, UniProt Q9BYT3); assay: DSF thermal shift; assay type: binding; settings: 10 µM inhibitor; read-out: Tm shift
T24 construct: purchased Nanosyn (enzymatic panel); SGC in-house recombinant human kinases (DSF panel); Invitrogen (ALK1-6)
How it was run: as §1

[25] = target: T25, ZAK (Homo sapiens, UniProt Q9NYL2); assay: DSF thermal shift; assay type: binding; settings: 10 µM inhibitor; read-out: Tm shift
T25 construct: purchased Nanosyn (enzymatic panel); SGC in-house recombinant human kinases (DSF panel); Invitrogen (ALK1-6)
How it was run: as §1

[26] = target: T26, DAPK3 (Homo sapiens, UniProt O43293); assay: DSF thermal shift; assay type: binding; settings: 10 µM inhibitor; read-out: Tm shift
T26 construct: purchased Nanosyn (enzymatic panel); SGC in-house recombinant human kinases (DSF panel); Invitrogen (ALK1-6)
How it was run: as §1

[27] = target: T27, NDR1 (Homo sapiens, UniProt Q15208); assay: DSF thermal shift; assay type: binding; settings: 10 µM inhibitor; read-out: Tm shift
T27 construct: purchased Nanosyn (enzymatic panel); SGC in-house recombinant human kinases (DSF panel); Invitrogen (ALK1-6)
How it was run: as §1

[28] = target: T28, CLK4 (Homo sapiens, UniProt Q9HAZ1); assay: DSF thermal shift; assay type: binding; settings: 10 µM inhibitor; read-out: Tm shift
T28 construct: purchased Nanosyn (enzymatic panel); SGC in-house recombinant human kinases (DSF panel); Invitrogen (ALK1-6)
How it was run: as §1

[29] = test system: Tg(fli1a:eGFP) zebrafish embryos; assay: Intersomitic vessel (ISV) formation in zebrafish embryos; assay type: in vivo; settings: 10 µM; treated from 12 hpf, scored at 48 hpf
Protocol: The zebrafish colony was maintained as described and embryos were raised at 28.5°C. The Tg(BRE:mRFP) transgenic line (also called BRE-mRFP) has been described previously and expresses mRFP in response to BMP signaling. […] Inhibitor stocks were diluted in DMSO and then further diluted in fish water to give the required inhibitor concentrations. To minimize the amount of inhibitors used, experiments were performed in 24-well plates with approximately 20 embryos per well in a volume of 1 mL. The chemical treatment was applied by immersing 8- to 16-cell stage Tg(BRE:mRFP) embryos (dorsalization experiment) or 12 hours old […]) embryos (ISV experiment) in the fish water supplemented with DMSO or the chemical inhibitors. For the ISV experiment, embryos were manually dechorionated after bud stage before treatment. Embryos were scored and photographed at 26 or 48 hours.

T1 sequence (P78362 whole entry): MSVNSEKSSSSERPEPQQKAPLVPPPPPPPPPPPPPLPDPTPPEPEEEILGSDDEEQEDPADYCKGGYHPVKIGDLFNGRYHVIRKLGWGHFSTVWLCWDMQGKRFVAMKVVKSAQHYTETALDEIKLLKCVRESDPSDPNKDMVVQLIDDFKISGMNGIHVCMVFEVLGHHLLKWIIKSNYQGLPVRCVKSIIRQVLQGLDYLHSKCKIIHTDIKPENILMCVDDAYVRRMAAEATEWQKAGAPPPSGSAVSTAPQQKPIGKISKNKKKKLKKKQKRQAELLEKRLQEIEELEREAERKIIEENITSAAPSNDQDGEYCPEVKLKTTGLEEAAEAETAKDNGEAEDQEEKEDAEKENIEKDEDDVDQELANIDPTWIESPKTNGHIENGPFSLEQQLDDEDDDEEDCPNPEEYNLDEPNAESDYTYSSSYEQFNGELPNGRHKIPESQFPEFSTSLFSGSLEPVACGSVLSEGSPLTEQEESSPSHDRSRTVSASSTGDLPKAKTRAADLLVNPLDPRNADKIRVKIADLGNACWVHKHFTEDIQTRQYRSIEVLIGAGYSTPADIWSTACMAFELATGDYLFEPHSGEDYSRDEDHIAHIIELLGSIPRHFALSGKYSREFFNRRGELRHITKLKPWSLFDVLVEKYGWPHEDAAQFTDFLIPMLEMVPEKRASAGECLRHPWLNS
T20 sequence (Q13873 27-1038): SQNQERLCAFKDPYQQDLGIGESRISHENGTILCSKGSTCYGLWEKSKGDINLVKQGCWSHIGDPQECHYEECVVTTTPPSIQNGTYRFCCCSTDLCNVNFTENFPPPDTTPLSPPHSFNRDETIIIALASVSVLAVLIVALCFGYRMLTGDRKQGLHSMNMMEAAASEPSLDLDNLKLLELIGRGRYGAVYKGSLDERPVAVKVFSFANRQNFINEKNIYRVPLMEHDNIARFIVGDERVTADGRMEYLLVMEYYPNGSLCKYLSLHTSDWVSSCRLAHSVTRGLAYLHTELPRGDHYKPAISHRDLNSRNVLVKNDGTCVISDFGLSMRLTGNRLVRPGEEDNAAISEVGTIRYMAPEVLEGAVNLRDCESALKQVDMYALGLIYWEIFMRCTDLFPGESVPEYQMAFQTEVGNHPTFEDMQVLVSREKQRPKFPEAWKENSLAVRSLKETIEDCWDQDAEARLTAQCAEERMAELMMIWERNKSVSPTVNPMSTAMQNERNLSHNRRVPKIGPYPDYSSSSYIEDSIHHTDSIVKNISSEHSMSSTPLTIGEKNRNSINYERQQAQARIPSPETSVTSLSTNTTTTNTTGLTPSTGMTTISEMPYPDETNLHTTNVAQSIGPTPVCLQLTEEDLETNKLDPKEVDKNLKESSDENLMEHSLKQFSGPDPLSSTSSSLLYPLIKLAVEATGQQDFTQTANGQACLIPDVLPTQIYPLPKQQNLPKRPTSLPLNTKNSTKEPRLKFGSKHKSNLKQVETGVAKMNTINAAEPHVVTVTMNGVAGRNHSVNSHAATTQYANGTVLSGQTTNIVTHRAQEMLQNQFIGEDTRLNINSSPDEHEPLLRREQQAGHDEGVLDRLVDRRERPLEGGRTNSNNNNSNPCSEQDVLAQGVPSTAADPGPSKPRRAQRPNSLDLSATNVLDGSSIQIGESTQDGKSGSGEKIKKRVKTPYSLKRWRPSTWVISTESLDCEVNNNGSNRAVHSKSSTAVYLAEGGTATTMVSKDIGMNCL
T17 sequence (Q15759 whole entry): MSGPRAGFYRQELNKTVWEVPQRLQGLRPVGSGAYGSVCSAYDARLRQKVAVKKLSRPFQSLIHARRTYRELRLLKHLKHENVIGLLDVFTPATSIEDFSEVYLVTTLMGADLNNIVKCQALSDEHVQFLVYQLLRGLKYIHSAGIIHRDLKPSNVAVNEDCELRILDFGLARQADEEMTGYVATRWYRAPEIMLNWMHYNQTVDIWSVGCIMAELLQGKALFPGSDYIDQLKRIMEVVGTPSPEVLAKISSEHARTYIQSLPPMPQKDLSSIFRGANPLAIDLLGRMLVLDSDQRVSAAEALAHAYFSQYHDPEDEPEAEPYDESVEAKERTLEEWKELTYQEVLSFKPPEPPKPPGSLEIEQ
T26 sequence (O43293 whole entry): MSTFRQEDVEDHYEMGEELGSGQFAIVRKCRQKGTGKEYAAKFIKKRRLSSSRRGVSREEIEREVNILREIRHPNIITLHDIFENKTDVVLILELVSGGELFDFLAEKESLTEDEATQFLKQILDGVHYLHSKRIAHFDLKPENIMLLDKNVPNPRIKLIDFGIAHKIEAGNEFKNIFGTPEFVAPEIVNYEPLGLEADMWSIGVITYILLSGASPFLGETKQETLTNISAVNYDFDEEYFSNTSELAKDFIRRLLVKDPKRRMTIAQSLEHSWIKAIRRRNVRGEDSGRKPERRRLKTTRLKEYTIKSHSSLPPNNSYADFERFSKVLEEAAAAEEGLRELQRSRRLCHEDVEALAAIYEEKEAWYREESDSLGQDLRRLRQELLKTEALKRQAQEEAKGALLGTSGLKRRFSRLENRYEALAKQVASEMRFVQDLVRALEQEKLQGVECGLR
T14 sequence (Q00532 whole entry): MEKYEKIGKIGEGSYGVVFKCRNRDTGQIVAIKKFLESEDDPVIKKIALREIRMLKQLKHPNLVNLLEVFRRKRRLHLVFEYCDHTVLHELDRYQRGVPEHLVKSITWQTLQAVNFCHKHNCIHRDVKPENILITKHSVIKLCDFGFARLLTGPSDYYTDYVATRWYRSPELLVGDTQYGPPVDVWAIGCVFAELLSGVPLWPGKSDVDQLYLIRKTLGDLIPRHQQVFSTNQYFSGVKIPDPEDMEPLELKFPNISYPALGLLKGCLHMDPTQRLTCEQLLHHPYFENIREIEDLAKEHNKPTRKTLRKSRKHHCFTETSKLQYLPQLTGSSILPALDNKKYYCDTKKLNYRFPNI
T21 sequence (Q8IU85 whole entry): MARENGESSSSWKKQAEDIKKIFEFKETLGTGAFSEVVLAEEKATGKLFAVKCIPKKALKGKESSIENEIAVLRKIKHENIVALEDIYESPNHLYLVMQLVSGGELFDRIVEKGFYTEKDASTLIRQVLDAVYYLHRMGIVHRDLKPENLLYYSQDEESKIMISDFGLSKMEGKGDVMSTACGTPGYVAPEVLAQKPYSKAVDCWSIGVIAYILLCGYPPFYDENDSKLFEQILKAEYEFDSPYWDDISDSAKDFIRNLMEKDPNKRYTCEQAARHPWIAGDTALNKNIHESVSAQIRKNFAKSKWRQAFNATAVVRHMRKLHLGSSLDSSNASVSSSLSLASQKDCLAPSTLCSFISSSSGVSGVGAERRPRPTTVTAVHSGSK
T19 sequence (Q13882 whole entry): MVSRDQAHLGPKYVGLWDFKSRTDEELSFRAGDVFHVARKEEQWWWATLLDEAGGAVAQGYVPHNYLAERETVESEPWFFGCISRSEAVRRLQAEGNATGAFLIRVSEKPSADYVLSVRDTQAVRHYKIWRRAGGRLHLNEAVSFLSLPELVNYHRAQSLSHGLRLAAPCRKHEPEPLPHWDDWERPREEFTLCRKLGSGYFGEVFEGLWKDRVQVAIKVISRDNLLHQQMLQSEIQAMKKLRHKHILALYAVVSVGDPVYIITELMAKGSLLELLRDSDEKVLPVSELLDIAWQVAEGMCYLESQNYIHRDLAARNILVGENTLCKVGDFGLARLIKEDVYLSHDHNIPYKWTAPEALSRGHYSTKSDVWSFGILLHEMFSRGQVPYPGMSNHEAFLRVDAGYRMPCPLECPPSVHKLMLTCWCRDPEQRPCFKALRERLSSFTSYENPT
T15 sequence (Q86YV6 whole entry): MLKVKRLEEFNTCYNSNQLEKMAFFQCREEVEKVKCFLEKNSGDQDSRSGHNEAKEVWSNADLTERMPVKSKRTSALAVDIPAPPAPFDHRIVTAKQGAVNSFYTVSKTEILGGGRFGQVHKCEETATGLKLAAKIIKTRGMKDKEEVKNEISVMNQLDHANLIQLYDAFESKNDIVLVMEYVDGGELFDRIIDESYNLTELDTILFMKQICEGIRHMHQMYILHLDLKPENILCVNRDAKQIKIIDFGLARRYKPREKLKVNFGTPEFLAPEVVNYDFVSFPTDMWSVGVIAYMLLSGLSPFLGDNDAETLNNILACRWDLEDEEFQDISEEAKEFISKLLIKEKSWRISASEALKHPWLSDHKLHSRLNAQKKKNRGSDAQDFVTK
T25 sequence (Q9NYL2 whole entry): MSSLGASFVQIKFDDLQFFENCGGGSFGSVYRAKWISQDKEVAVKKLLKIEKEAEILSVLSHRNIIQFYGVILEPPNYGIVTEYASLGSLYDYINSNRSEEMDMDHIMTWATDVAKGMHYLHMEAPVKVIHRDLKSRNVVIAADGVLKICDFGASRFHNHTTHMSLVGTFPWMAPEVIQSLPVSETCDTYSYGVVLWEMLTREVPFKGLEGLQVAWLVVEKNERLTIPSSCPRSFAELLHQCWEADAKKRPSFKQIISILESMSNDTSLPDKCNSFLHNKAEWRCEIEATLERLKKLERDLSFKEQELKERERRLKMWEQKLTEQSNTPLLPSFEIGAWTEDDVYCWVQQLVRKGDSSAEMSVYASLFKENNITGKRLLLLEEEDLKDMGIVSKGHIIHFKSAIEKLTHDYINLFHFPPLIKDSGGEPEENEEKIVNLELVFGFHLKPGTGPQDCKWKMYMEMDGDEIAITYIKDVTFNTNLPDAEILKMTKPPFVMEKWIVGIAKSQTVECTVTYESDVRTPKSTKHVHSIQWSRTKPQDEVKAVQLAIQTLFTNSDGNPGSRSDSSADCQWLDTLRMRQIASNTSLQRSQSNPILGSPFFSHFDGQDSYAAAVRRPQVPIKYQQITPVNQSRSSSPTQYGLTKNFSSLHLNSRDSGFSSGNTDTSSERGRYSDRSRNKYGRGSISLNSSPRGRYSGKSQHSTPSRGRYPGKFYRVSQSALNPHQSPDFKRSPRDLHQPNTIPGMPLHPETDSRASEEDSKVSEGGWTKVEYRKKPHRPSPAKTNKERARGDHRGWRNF

- ΔTm at 10 µM [1]: 0.2 °C
- ΔTm at 10 µM [2]: -0.1 °C
- ΔTm at 10 µM [3]: 12.4 °C
- ΔTm at 10 µM [4]: 0 °C
- ΔTm at 10 µM [5]: 0.4 °C
- ΔTm at 10 µM [6]: 4.7 °C
- ΔTm at 10 µM [7]: 7.4 °C
- ΔTm at 10 µM [8]: 4.2 °C
- ΔTm at 10 µM [9]: 4.4 °C
- ΔTm at 10 µM [10]: -0.1 °C
- ΔTm at 10 µM [11]: 0.4 °C
- ΔTm at 10 µM [12]: 2.9 °C
- ΔTm at 10 µM [13]: 4.3 °C
- ΔTm at 10 µM [14]: 2 °C
- ΔTm at 10 µM [15]: 4.3 °C
- ΔTm at 10 µM [16]: 0.5 °C
- ΔTm at 10 µM [17]: 1.1 °C
- ΔTm at 10 µM [18]: 9 °C
- ΔTm at 10 µM [19]: 2.8 °C
- ΔTm at 10 µM [20]: 1.5 °C
- ΔTm at 10 µM [21]: -0.3 °C
- ΔTm at 10 µM [22]: 0.3 °C
- ΔTm at 10 µM [23]: 3.8 °C
- ΔTm at 10 µM [24]: 4.2 °C
- ΔTm at 10 µM [25]: 0.5 °C
- ΔTm at 10 µM [26]: 1.2 °C
- ΔTm at 10 µM [27]: 2.8 °C
- ΔTm at 10 µM [28]: 8.7 °C
Structure (SMILES): c1cc(-c2cnn3cc(-c4ccc(OCCN5CCCCC5)cc4)cnc23)ccn1 [Dorsomorphin]
- ISV formation phenotype [29]: defects in intersomitic vessel (ISV) formation
